Data on three compounds can be found in patent US11999782B2, “Therapeutic agents for the treatment of diseases associated with undesired cell proliferation” (Fundació Privada Institutció Catalana de Recerca I Estudis …, priority 2009, dated 2024).

Test [1] concerns GICs (glioma initiating cells) / GBM neurospheres. Put plainly: Self-renewal assay of GBM neurospheres (GICs derived from patients). The class given is cell-based, human. Conditions: for number of newly formed neurospheres / total number of cells: GBM1, GBM2, GBM3 neurosphere cells, 7 days in the absence of growth factors, 100 pM TGFβ1 or 20 ng/ml LIF. How it is done:
FIG. 1. Effect of TGFβ on the self-renewal of GIC derived from patients. (A) Representative images of PCTCs and neurospheres of GBM generated from samples of 3 different patients with GBM (GBM1, GBM2, GBM3). (B) Musashi-1 (Msi-1), Sox2, Nestin and β-actin were determined by means of RT-PCR analysis of PCTCs and neurospheres of 3 samples of human GBM. (C) 100,000 neurosphere (nsph.) or PCTC cells obtained from samples of GBM1, GBM2 and GBM3 tumors were intracranially inoculated in three Balbc nu/nu mice in each case. Magnetic resonance imaging (MRI) studies were performed on days 30-40 in each mouse. The images represent an example of mice inoculated with neurosphere or PCTC cells obtained from GBM1. The mice were weighed twice a week. The graph represents mice inoculated with cells derived from GBM1. (D and E) Neurosphere cells of the indicated GBMs were incubated in the absence of growth factors with 100 pM TGFβ1 and/or 2 μM TβRI inhibitor for 7 days and the number of newly formed neurospheres (D) and the total number of cells (E) were determined. (F) Representative images of GBM1 neurospheres treated as indicated in D and E.
FIG. 6. LIF mediates the increase of self-renewal of GIC by TGFβ. (A, B) GBM1, GBM2 and GBM3 neurosphere cells were treated with 100 pM TGFβ1, 20 ng/ml LIF and/or anti-LIF neutralizing antibody and 0.5 pM P6 in the absence of EGF and FGF and the number of newly formed neurospheres (A) or the total number of cells (B) was determined. (C) Representative images of GBM1 neurospheres treated as indicated in A and B.
The self-renewal of the neurospheres was evaluated by seeding an identical number of cells at a very low density in wells of a 96-well plate. The cells were treated, in the absence of growth factors, with the indicated compounds and the total number of new neurospheres formed after 7 days in culture was counted (Lee et al. (2008) Cancer Cell 13, 69-80; Reynolds and Weiss, (1996) Dev Biol 175, 1-13; Seaberg and van der Kooy, (2002) J Neurosci 22, 1784-1793).
It was decided to evaluate the effect of TGFβ on the capacity for self-renewal of GICs following a well described protocol based on the capacity of GICs to generate neurospheres (Reynolds and Weiss, 1996, Dev Biol. 175:1-13; Seaberg and van der Kooy, 2002, J Neurosci 22:1784-1793). The neurospheres derived from patients were disassociated into individual cells, treated with TGFβ or left untreated for 7 days in the absence of growth factors and the newly formed neurospheres and the total number of cells were counted. Following this protocol, the effect of TGFβ on the capacity for self-renewal of the GICs derived from three different patients was evaluated. […] These effects were blocked when an TGFβ I receptor inhibitor (TβRI) was added at the same time as TGFβ.
It was decided to assess whether LIF and JAK-STAT pathway mediated the increase of self-renewal of GICs by TGFβ. For this purpose, the neutralizing antibody against LIP and P6 was used to specifically block the effect of the secreted LIP on cells treated with TGFβ. The neurospheres were disassociated into individual cells and were treated with TGFβ, recombinant LIF, anti-LIF antibody and/or P6. The newly formed neurospheres and the total number of cells were counted. […] The treatment with the neutralizing antibody of LIP decreased the induction of the self-renewal of GICs by TGFβ.

Test [2] has as its system STAT3 phosphorylation (JAK-STAT pathway). Put plainly: p-STAT3 Western blotting in GBM1 neurospheres. The class given is cell-based, human. Conditions: for phosphorylation of STAT3: 20 ng/ml LIF (time course) or 100 pM TGFβ1 for 4 hours. The method, then: FIG. 5. TGFβ induces the LIF-JAK-STAT pathway in GEM neurospheres derived from patients. (A) The levels of p-STAT3 and STAT3 were determined by means of Western blotting of neurospheres of the sample of GBM1 treated with 20 ng/ml LIF for the indicated time periods. (B) The neurospheres of the sample of GBM1 were treated with 20 ng/ml LIF and/or 0.5 pM P6 for 15 minutes and the levels of total p-STAT3 and STAT3 were determined by means of Western blotting. (C) The neurospheres of the sample of GBM1 were treated with 100 pM TGFβ1 or the 2 pM TβRI inhibitor for 4 hours in the absence of EFG and FGF and the levels of p-STAT3, STAT3, p-Smad2, Smad2 and α-tubulin were determined by means of Western blotting. (D) the neurospheres of the sample of GBM1 were treated with 100 pM TGFβ1, 0.5 μM P6 or the blocking antibody against LIF for 4 hours in the absence of EGF and FGF and the levels of total p-STAT3 and STAT3 were determined by means of Western blotting.
Genomic DNA of U373MG was used to amplify the −634/+32 region of the human LIF promoter which was cloned into the pGL2-basic luciferase vector. The deletion constructs (−267/+32), and (−73/+32) were generated by means of digestion of the construct (−634/+32). Two point mutations were introduced in positions −183 bp and −184 bp in the construct (−267/+32) to interrupt the Smad binding element (SBE) and generate the construct (−267/+32) mutSBE. TGFβ1, TGFβ2, TGFβ3 (R&D Systems), TβRI inhibitor (SB431542, Tocris), LIF (Chemicon), the neutralizing antibodies against LIF (R&D), JAK inhibitor (tetracyclic pyridone 6 (P6) Calbiochem), the assembly of SMART siRNAs targeted to Smad2, Smad3 and Smad4 (Dharmacon), and the control siRNA siGlo (Dharmacon) were used at the indicated concentrations. The antibodies specific against p-Smad2, Smad2, p-STAT3 (p-Tyr705) and total STAT3 (Cell Signalling) and against Smad2, Smad3 and Smad4 (Hata et al., (2000) Cell 100, 229-240) were used for Western blotting.
In order to distinguish whether the LIF signaling pathway is functional in GEM neurospheres, the neurospheres were treated with recombinant LIF and the levels of phosphorylation of the downstream substrate of the LIF receptor complex, STAT3, were determined. […] Furthermore, the induction of p-STAT3 was prevented by the presence of a pharmacological JAK-specific, tetracyclic pyridone 6 (P6) (Pedranzini et al., 2006, Cancer Res, 66: 9714-9721; Thompson et al., 2002, Bioorg Med Chem Lett, 12:1219-1223) (FIG. 5B). […] It was decided to assess whether LIP was mediating the induction of p-STAT3 by TGFβ. For this purpose, a neutralizing antibody against LIF was used to specifically block the effect of secreted LIP on cells treated with TGFβ. The presence of the neutralizing antibody of LIP decreased the induction of p-STAT3 by TGFβ. Furthermore, the levels of p-STAT3 in cells treated with TGFβ were repressed by means of the treatment with P6 (FIG. 5D).

Take `NC(=O)c1ccc(-c2nc(-c3ccc4c(c3)OCO4)c(-c3ccccn3)[nH]2)cc1` [TβRI inhibitor, SB431542, reference compound]: the “effect of the isolated inhibitor on number of neurospheres and total number of cells” value in test [1] (2 μM TβRI inhibitor without TGFβ, 7 days, absence of growth factors) is “no significant effect”. Also, in test [1] (added with 100 pM TGFβ1, 2 μM TβRI inhibitor, anti-LIF neutralizing antibody or 0.5 pM P6, absence of EGF and FGF), the “effect on the induction of self-renewal of GICs by TGFβ (number of neurospheres, total number of cells)” value is recorded as “blocked”. Besides, the “effect on the induction of p-STAT3 by TGFβ” value in test [2] (100 pM TGFβ1, 4 hours, absence of EGF and FGF, 2 pM TβRI inhibitor, 0.5 μM P6 or blocking antibody against LIF) is given as “prevented that effect”.

For “LIF: recombinant leukemia inhibitory factor, an IL-6 type cytokine (Chemicon)”, in test [1], the “number of newly formed neurospheres” value is reported as “increased” and the “total number of cells” value was “increased”. Also, in test [2], the “phosphorylation of STAT3” value is listed as “induced a quick phosphorylation of STAT3”.

As for “TGFβ: TGFβ1 (R&D Systems), used at 100 pM according to the figure legends”, in test [1], the “number of newly formed neurospheres” value was “significantly increased” and the “total number of cells” value is reported as “increased”. For the same compound, the “phosphorylation of STAT3” value in test [2] was “induced the phosphorylation of STAT3”.
